# Measured values reported in patent US8003649B2 (AstraZeneca AB, priority 2007, dated 2011).
# Target: T1, Androgen Receptor (AR) (Homo sapiens, UniProt P10275, T878A)
# T1 construct: cell based immuno-fluorescence assay using the LNCaP prostate epithelial cell line; endogenous in cells; host or cells: LNCaP clone FGC (ATCC CRL-1740)
# T1 sequence (P10275 1-920 T878A): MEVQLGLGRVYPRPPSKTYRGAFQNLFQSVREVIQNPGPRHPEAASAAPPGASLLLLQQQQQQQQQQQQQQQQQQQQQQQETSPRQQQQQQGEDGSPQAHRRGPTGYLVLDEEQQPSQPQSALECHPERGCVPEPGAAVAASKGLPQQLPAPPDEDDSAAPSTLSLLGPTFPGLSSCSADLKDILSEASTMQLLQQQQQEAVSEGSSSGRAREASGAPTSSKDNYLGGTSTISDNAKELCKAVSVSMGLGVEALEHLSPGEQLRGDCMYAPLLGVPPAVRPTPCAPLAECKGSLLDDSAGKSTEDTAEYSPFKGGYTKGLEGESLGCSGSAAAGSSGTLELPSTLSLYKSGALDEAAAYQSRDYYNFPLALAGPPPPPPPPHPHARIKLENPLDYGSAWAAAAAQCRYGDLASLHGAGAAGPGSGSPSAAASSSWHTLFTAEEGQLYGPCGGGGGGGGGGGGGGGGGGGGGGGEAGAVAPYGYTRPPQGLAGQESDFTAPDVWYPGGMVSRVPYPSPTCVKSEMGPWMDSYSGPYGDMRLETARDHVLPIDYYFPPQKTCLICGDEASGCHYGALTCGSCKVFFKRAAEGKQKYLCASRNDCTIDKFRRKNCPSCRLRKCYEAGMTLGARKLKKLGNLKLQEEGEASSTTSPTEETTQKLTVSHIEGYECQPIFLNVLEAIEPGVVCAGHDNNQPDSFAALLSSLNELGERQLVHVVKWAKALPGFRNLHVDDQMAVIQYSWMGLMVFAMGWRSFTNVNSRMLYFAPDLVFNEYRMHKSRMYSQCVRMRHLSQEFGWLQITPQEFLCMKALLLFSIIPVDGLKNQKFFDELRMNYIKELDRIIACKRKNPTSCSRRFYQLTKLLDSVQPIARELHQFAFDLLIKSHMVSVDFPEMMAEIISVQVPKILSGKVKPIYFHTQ
# Experiment: LNCaP Androgen Receptor Down-regulation Cell Assay (immunofluorescence end point)
# Assay type: cell-based
# Details: LNCaP prostate carcinoma cells, compound incubation 20-22 hours, 50% reduction of the AR signal; read-out: Androgen Receptor Down-regulation Assay (a) IC50/μM
# Outline: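 AR loss reported as IC50 from curve fits of fluorescence dose-response data, with AR immunostained and read by laser-scanning cytometry. Compound exposure was 20-22 h at 37° C in LNCaP cells grown in 5% charcoal-stripped FBS and plated overnight beforehand.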
row,SMILES,DC50
1,"COCCN(C)C(=O)c1ccc(C2CCN(c3ccc4nnc(C(F)(F)F)n4n3)CC2)cc1 [Example 512, N-(2-methoxyethyl)-N-methyl-4-[1-[3-(trifluoromethyl)[1,2,4]triazolo[4,3-b]pyridazin-6-yl]piperidin-4-yl]benzamide]",0.87 µM
2,"Cn1nccc1CCOc1ccc(N2CCN(c3ccc4nnc(C(F)(F)F)n4n3)CC2)cc1 [Example 514, 6-[4-[4-[2-(1-methyl-1H-pyrazol-5-yl)ethoxy]phenyl]piperazin-1-yl]-3-(trifluoromethyl)[1,2,4]triazolo[4,3-b]pyridazine]",0.87 µM
3,"FC(F)(F)c1nnc2ccc(N3CCCC(c4ccccc4)C3)nn12 (stereo not shown) [Example 515, 6-(3-phenylpiperidin-1-yl)-3-(trifluoromethyl)[1,2,4]triazolo[4,3-b]pyridazine]",1.4 µM
4,"FC(F)(F)c1nnc2ccc(N3CCCC(COc4ccccc4)C3)nn12 (stereo not shown) [Example 516, 6-[3-(Phenoxymethyl)piperidin-1-yl]-3-(trifluoromethyl)[1,2,4]triazolo[4,3-b]pyridazine]",1.4 µM
5,CS(=O)(=O)c1ccc(C2CCN(c3ccc4nnc(C(F)(F)F)n4n3)CC2)cc1 [Example 521],5.4 µM
6,CNC(=O)c1ccc(C2CCN(c3ccc4nnc(C(F)(F)F)n4n3)CC2)cc1 [Example 522],3.9 µM
7,COc1ccc(C2CCN(c3ccc4nnc(C(F)(F)F)n4n3)CC2)cc1 [Example 523],1 µM
8,FC(F)(F)c1ccc(C2CCN(c3ccc4nnc(C(F)(F)F)n4n3)CC2)cc1 [Example 524],3.2 µM
9,Fc1cccc(C2CCN(c3ccc4nnc(C(F)(F)F)n4n3)CC2)c1 [Example 525],5.2 µM
10,COc1cccc(C2CCN(c3ccc4nnc(C(F)(F)F)n4n3)CC2)c1 [Example 526],2.5 µM
11,COc1cccc(OC2CCN(c3ccc4nnc(C(F)(F)F)n4n3)CC2)c1 [Example 527],0.67 µM
12,COc1ccc(OC2CCN(c3ccc4nnc(C(F)(F)F)n4n3)CC2)cc1 [Example 528],2.2 µM
13,Fc1ccccc1OC1CCN(c2ccc3nnc(C(F)(F)F)n3n2)CC1 [Example 529],1.9 µM
14,FC(F)(F)c1nnc2ccc(N3CCC(Oc4ccccc4Cl)CC3)nn12 [Example 530],1.6 µM
15,COc1ccccc1OC1CCN(c2ccc3nnc(C(F)(F)F)n3n2)CC1 [Example 531],1.8 µM
16,Fc1cccc(OC2CCN(c3ccc4nnc(C(F)(F)F)n4n3)CC2)c1 [Example 532],0.98 µM
17,O=C(c1ccccc1)C1CCN(c2ccc3nnc(C(F)(F)F)n3n2)CC1 [Example 533],2.3 µM
18,O=C(c1ccc(F)cc1)C1CCN(c2ccc3nnc(C(F)(F)F)n3n2)CC1 [Example 534],2.3 µM
19,FC(F)(F)c1nnc2ccc(N3CCC(Cc4ccccc4)CC3)nn12 [Example 535],1.9 µM
20,Fc1ccc(CC2CCN(c3ccc4nnc(C(F)(F)F)n4n3)CC2)cc1 [Example 536],1.4 µM
21,FC(F)(F)c1nnc2ccc(N3CCC(Cc4ccccn4)CC3)nn12 [Example 537],3 µM
22,FC(F)(F)c1nnc2ccc(N3CCC(Cc4ccncc4)CC3)nn12 [Example 538],2.3 µM
23,FC(F)(F)c1nnc2ccc(N3CCC(Cc4cccnc4)CC3)nn12 [Example 539],1.5 µM
24,FC(F)(F)c1nnc2ccc(N3CCC(c4ccncc4)CC3)nn12 [Example 540],1.5 µM
25,FC(F)(F)c1nnc2ccc(N3CCC(n4ccc5ccccc54)CC3)nn12 [Example 542],2.6 µM

row,SMILES,DC50
1,FC(F)(F)c1nnc2ccc(N3CCC(Oc4cnccn4)CC3)nn12 [Example 544],2.9 µM
2,FC(F)(F)c1nnc2ccc(N3CCC(Oc4ccncc4)CC3)nn12 [Example 545],3.6 µM
3,OC1(Cc2ccccc2)CCN(c2ccc3nnc(C(F)(F)F)n3n2)CC1 [Example 548],2.2 µM
4,OC1(c2ccccc2F)CCN(c2ccc3nnc(C(F)(F)F)n3n2)CC1 [Example 549],1.6 µM
5,OC1(c2ccncc2)CCN(c2ccc3nnc(C(F)(F)F)n3n2)CC1 [Example 550],7.2 µM
6,Fc1ccc(C2=CCN(c3ccc4nnc(C(F)(F)F)n4n3)CC2)cc1 [Example 552],7.8 µM
7,"FC(F)(F)c1nnc2ccc(N3C[C@H]4CC[C@@H](C3)N4Cc3cccnc3)nn12 [Example 553, 6-[(1R,5S)-8-(pyridin-3-ylmethyl)-3,8-diazabicyclo[3.2.1]oct-3-yl]-3-(trifluoromethyl)[1,2,4]triazolo[4,3-b]pyridazine]",2.6 µM
8,"Fc1ccc(CN[C@H]2[C@@H]3CN(c4ccc5nnc(C(F)(F)F)n5n4)C[C@@H]32)cc1 [Example 554, (1α,5α,6α) N-(4-fluorobenzyl)-3-[3-(trifluoromethyl)[1,2,4]triazolo[4,3-b]pyridazin-6-yl]-3-azabicyclo[3.1.0]hexan-6-amine]",4.9 µM
9,FC(F)(F)c1nnc2ccc(N3C[C@@H]4[C@H](C3)[C@H]4NCc3cccc(Cl)c3)nn12 [Example 555],1.4 µM
10,Fc1cccc(CN[C@H]2[C@@H]3CN(c4ccc5nnc(C(F)(F)F)n5n4)C[C@@H]32)c1 [Example 556],4.4 µM
11,FC(F)(F)c1nnc2ccc(N3CCC(COc4ncccn4)CC3)nn12 [Example 558],2.6 µM
12,FC(F)(F)c1nnc2ccc(N3CCC(COc4cccnc4)CC3)nn12 [Example 560],8.8 µM
13,FC(F)(F)c1nnc2ccc(N3CCC(COc4ccncc4)CC3)nn12 [Example 561],2.9 µM
14,"FC(F)(F)c1nnc2ccc(N3CCC(COc4cccc(Cl)n4)CC3)nn12 [Example 562, 6-[4-[[(6-chloropyridin-2-yl)oxy]methyl]piperidin-1-yl]-3-(trifluoromethyl)[1,2,4]triazolo[4,3-b]pyridazine]",2 µM
15,"C[C@@H]1CN(c2ccc3nnc(C(F)(F)F)n3n2)CCN1Cc1cccnc1 [Example 564, 6-[(3R)-3-methyl-4-(pyridin-3-ylmethyl)piperazin-1-yl]-3-(trifluoromethyl)[1,2,4]triazolo[4,3-b]pyridazine]",6.7 µM
16,C[C@@H]1CN(c2ccc3nnc(C(F)(F)F)n3n2)CCN1Cc1ccc(C#N)cc1 [Example 565],3.5 µM
17,C[C@@H]1CN(c2ccc3nnc(C(F)(F)F)n3n2)CCN1Cc1cc(F)cc(F)c1 [Example 567],> 16 µM
18,C[C@@H]1CN(c2ccc3nnc(C(F)(F)F)n3n2)CCN1Cc1ccc(F)cc1 [Example 568],3.3 µM
19,C[C@@H]1CN(c2ccc3nnc(C(F)(F)F)n3n2)CCN1Cc1ccc(F)c(C#N)c1 [Example 569],2.7 µM
20,"C[C@H]1CN(c2ccc3nnc(C(F)(F)F)n3n2)CCN1Cc1cccnc1 [Example 570, 6-[(3S)-3-methyl-4-(pyridin-3-ylmethyl)piperazin-1-yl]-3-(trifluoromethyl)[1,2,4]triazolo[4,3-b]pyridazine]",4.5 µM
21,C[C@H]1CN(c2ccc3nnc(C(F)(F)F)n3n2)CCN1Cc1ccc(C#N)cc1 [Example 571],0.96 µM
22,C[C@H]1CN(c2ccc3nnc(C(F)(F)F)n3n2)CCN1Cc1ccc(F)c(F)c1 [Example 572],3.4 µM
23,C[C@H]1CN(c2ccc3nnc(C(F)(F)F)n3n2)CCN1Cc1ccc(F)c(C#N)c1 [Example 575],2.5 µM
24,"FC(F)(F)c1nnc2ccc(N3CC[C@@H](Oc4cccnc4)C3)nn12 [Example 576, 6-[(3R)-3-(pyridin-3-yloxy)pyrrolidin-1-yl]-3-(trifluoromethyl)[1,2,4]triazolo[4,3-b]pyridazine]",5 µM
